Experimental data taken from patent publication US9023789B2, “Amylin analogs and pharmaceutical compositions thereof” (Novo Nordisk A/S, priority 2012, dated 2015).
Read-outs that look alike come from different tables or passages of the source. Numbered stars: 1 amine (or outer) side, 2 acyl side, 3 side chain; on linkers, the order of the positions; unused ones are H or OH. Bridge positions count the residues as written; N and C are the ends. Side chains are listed from the residue outwards. Peptide text beside a SMILES is read from it. * marks the point of attachment. C20 diacid = O=C(O)CCCCCCCCCCCCCCCCCCC(=O)*; γGlu = O=C(O)[C@H](CCC(=O)[*:2])N[*:1]; AEEA = NCCOCCOCC(=O)O

Tests used:
[1] = molecular target: T1, human amylin 3(a) receptor (human calcitonin receptor + RAMP-3) in BHK570 cells (Homo sapiens, UniProt O60896+P30988); assay: ASSAY (II)a functional assay, human amylin receptor (CRE luciferase); type: cell-based
T1 construct: expressed in transfected cells
T1 sequence (O60896 24-148, one chain of several): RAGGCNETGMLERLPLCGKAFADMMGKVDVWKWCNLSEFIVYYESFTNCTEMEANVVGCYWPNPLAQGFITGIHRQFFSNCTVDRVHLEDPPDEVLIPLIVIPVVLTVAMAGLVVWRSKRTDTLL
In short: (§1)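 Cells were seeded and cultured overnight, then incubated with standard or sample for 3 h at 37° C in serum-containing medium at pH 7.4. The medium was then swapped for PBS, LucLite was added for 30 min at room temperature, and luminescence was recorded. Cells were BHK with CRE-luc and calcitonin receptor, ± RAMP-3.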

[2] = molecular target: T2, human calcitonin (a) receptor in BHK570 cells (Homo sapiens, UniProt P30988); assay: ASSAY (II)a functional assay, human calcitonin receptor (CRE luciferase); type: cell-based
T2 construct: expressed in transfected cells
T2 sequence (P30988 25-474): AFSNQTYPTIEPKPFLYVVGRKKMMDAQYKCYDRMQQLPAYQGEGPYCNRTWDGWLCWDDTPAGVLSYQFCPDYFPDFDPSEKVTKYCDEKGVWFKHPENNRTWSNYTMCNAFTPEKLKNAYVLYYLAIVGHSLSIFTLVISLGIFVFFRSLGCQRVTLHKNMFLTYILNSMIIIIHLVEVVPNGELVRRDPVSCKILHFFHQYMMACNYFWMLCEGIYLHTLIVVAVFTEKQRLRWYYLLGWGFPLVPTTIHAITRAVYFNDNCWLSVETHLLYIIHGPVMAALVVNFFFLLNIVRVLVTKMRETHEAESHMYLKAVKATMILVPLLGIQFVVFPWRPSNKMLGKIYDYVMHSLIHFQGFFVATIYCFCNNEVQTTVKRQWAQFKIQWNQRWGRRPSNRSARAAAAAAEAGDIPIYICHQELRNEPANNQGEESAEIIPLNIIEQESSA
In short: as §1

[3] = molecular target: T3, human calcitonin receptor (Homo sapiens, UniProt P30988); assay: ASSAY (VII) binding to the human calcitonin receptor (SPA, 125I-Calcitonin);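 further: cell membranes (35 ng/µL) combined with SPA beads in 40 µL of pH 7.4 Hepes buffer, 384-well format, signal counted on a TopCounter instrument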
T3 construct: expressed in transfected cells
T3 sequence (P30988 25-474): T2 sequence (P30988 25-474)
Method: Membranes were prepared in the following way; the cells were rinsed with PBS and incubated with Versene for approximately 5 min before harvesting. The cells were flushed with PBS and the cell-suspension was centrifuged for 5 min at 1000 rpm. […] The resulting pellet was resuspended in buffer 2 and protein concentration was measured (BCA protein Assay, Pierce). The homogenate was kept cold during the whole procedure. The membranes were kept at −80° C. until use. Assay was performed in a 384 well Optiplate (PerkinElmer) in a total volume of 40 ul. Membranes were mixed with SPA beads. Final concentration of membranes 35 ng/μL final and Final concentration of SPA beads was 0.05 mg/well. Test-compounds were dissolved in DMSO and further diluted in assay buffer (50 mM Hepes, pH 7.4, 1 mM CaCl2, 5 mM MgCl2, 0.1% OA and 0.02% Tween20). […] Samples were analyzed on TopCounter™ (Packard).

[4] = hCTR funct. EC50 divided by hAmylin-R funct. EC50
[5] = hCTR funct. EC50 over hAmylin-R funct. EC50
[6] = human amylin receptor functional potency, assay (II), read-out: hAmylin-R funct. EC50
[7] = human functional selectivity: hCTR funct. EC50 / hAmylin-R funct. EC50
[8] = hCTR funct. EC50 / hAmylin-R funct. EC50

SMILES	Ratio hCT/hAmylin funct. [1, 4]	Ratio hCT/hAmylin funct. [1, 5]	EC50 [1, 6]	Ratio hCT/hAmylin funct. [1, 7]	EC50 ([2]; read-out: hCTR funct. EC50)	IC50 ([3]; read-out: hCTR bind IC50)	EC50 [1]	EC50 [2]	IC50 [3]	Ratio hCT/hAmylin funct. [1, 8]
CC[C@H](C)[C@H](NC(=O)[C@H](C)NC(=O)CNC(=O)[C@H](Cc1ccccc1)NC(=O)[C@H](CC(N)=O)NC(=O)[C@@H]1CCCN1C(=O)[C@H](CO)NC(=O)[C@H](CO)NC(=O)[C@H](Cc1c[nH]cn1)NC(=O)[C@H](CCCNC(=N)N)NC(=O)[C@H](CC(C)C)NC(=O)[C@H](Cc1ccccc1)NC(=O)[C@H](CC(N)=O)NC(=O)[C@H](C)NC(=O)[C@H](CC(C)C)NC(=O)[C@H](CCCNC(=N)N)NC(=O)[C@H](CCC(N)=O)NC(=O)[C@@H](NC(=O)[C@H](C)NC(=O)[C@@H]1CSSC[C@H](NC(=O)[C@H](CCCCN)NC(=O)CC[C@H](NC(=O)CCCCCCCCCCCCCCCCCCC(=O)O)C(=O)O)C(=O)N[C@@H](CC(N)=O)C(=O)N[C@@H]([C@@H](C)O)C(=O)N[C@@H](C)C(=O)N[C@@H]([C@@H](C)O)C(=O)N1)[C@@H](C)O)C(=O)N1CCC[C@H]1C(=O)N[C@@H](CO)C(=O)N[C@@H](CO)C(=O)N[C@H](C(=O)N1CCC[C@H]1C(=O)N[C@H](C(=O)NCC(=O)N[C@@H](CO)C(=O)N[C@@H](CCC(=O)O)C(=O)N[C@H](C(=O)N[C@@H](Cc1ccc(O)cc1)C(N)=O)[C@@H](C)O)C(C)C)[C@@H](C)O [Example 28] ({C20 diacid-γGlu}-KCNTATCATQRLANFLRHSSPNFGAIPSSTPVGSETY-NH2; disulfide 2-7 (inferred))	9.2	9.2	220 pM	9.2	2030 pM	12500 pM				
CC[C@H](C)[C@H](NC(=O)[C@H](C)NC(=O)CNC(=O)[C@H](Cc1ccccc1)NC(=O)[C@H](CC(N)=O)NC(=O)[C@@H]1CCCN1C(=O)[C@H](CO)NC(=O)[C@H](CO)NC(=O)[C@H](Cc1c[nH]cn1)NC(=O)[C@H](CCCNC(=N)N)NC(=O)[C@H](CC(C)C)NC(=O)[C@H](Cc1ccccc1)NC(=O)[C@H](CCCCN)NC(=O)[C@H](C)NC(=O)[C@H](CC(C)C)NC(=O)[C@H](CCCNC(=N)N)NC(=O)[C@H](CCC(N)=O)NC(=O)[C@@H](NC(=O)[C@H](C)NC(=O)[C@@H]1CSSC[C@H](NC(=O)[C@@H](N)CCCCNC(=O)COCCOCCNC(=O)CC[C@H](NC(=O)CCCCCCCCCCCCCCCCCCC(=O)O)C(=O)O)C(=O)N[C@@H](CC(N)=O)C(=O)N[C@@H]([C@@H](C)O)C(=O)N[C@@H](C)C(=O)N[C@@H]([C@@H](C)O)C(=O)N1)[C@@H](C)O)C(=O)N1CCC[C@H]1C(=O)N[C@@H](CO)C(=O)N[C@@H](CO)C(=O)N[C@H](C(=O)N1CCC[C@H]1C(=O)N[C@H](C(=O)NCC(=O)N[C@@H](CO)C(=O)N[C@@H](CC(N)=O)C(=O)N[C@H](C(=O)N[C@@H](Cc1ccc(O)cc1)C(N)=O)[C@@H](C)O)C(C)C)[C@@H](C)O [Example 74] (H-K([AEEA-γGlu-C20 diacid])CNTATCATQRLAKFLRHSSPNFGAIPSSTPVGSNTY-NH2; disulfide 2-7; N-terminus assumed)	56.3	56.3		56.3			666 pM	37500 pM	79900 pM	
CC[C@H](C)[C@H](NC(=O)[C@H](C)NC(=O)CNC(=O)[C@H](Cc1ccccc1)NC(=O)[C@H](CC(N)=O)NC(=O)[C@@H]1CCCN1C(=O)[C@H](CO)NC(=O)[C@H](CO)NC(=O)[C@H](Cc1c[nH]cn1)NC(=O)[C@H](CCCNC(=N)N)NC(=O)[C@H](CC(C)C)NC(=O)[C@H](Cc1ccccc1)NC(=O)[C@H](CCC(=O)O)NC(=O)[C@H](C)NC(=O)[C@H](CC(C)C)NC(=O)[C@H](CCCNC(=N)N)NC(=O)[C@H](CCC(N)=O)NC(=O)[C@@H](NC(=O)[C@H](C)NC(=O)[C@@H]1CSSC[C@H](NC(=O)[C@@H](N)CCCCNC(=O)CC[C@H](NC(=O)CCCCCCCCCCCCCCCCCCC(=O)O)C(=O)O)C(=O)N[C@@H](CC(N)=O)C(=O)N[C@@H]([C@@H](C)O)C(=O)N[C@@H](C)C(=O)N[C@@H]([C@@H](C)O)C(=O)N1)[C@@H](C)O)C(=O)N1CCC[C@H]1C(=O)N[C@@H](CO)C(=O)N[C@@H](CO)C(=O)N[C@H](C(=O)N[C@@H](CC(N)=O)C(=O)N[C@H](C(=O)NCC(=O)N[C@@H](Cc1c[nH]cn1)C(=O)N[C@@H](CCC(=O)O)C(=O)N[C@H](C(=O)N[C@@H](Cc1ccc(O)cc1)C(N)=O)[C@@H](C)O)C(C)C)[C@@H](C)O [Example 107] (H-K([γGlu-C20 diacid])CNTATCATQRLAEFLRHSSPNFGAIPSSTNVGHETY-NH2; disulfide 2-7 (inferred))	6.3	6.3	405 pM	6.3	2540 pM	4280 pM				
CC[C@H](C)[C@H](NC(=O)[C@H](C)NC(=O)CNC(=O)[C@H](Cc1ccccc1)NC(=O)[C@H](CC(N)=O)NC(=O)[C@@H]1CCCN1C(=O)[C@H](CO)NC(=O)[C@H](CO)NC(=O)[C@H](Cc1c[nH]cn1)NC(=O)[C@H](CCCNC(=N)N)NC(=O)[C@H](CC(C)C)NC(=O)[C@H](Cc1ccccc1)NC(=O)[C@H](CCC(=O)O)NC(=O)[C@H](C)NC(=O)[C@H](CC(C)C)NC(=O)[C@H](CCCNC(=N)N)NC(=O)[C@H](CCC(N)=O)NC(=O)[C@@H](NC(=O)[C@H](C)NC(=O)[C@@H]1CSSC[C@H](NC(=O)[C@H](CCCCN)NC(=O)CC[C@H](NC(=O)CCCCCCCCCCCCCCCCCCC(=O)O)C(=O)O)C(=O)N[C@@H](CC(N)=O)C(=O)N[C@@H]([C@@H](C)O)C(=O)N[C@@H](C)C(=O)N[C@@H]([C@@H](C)O)C(=O)N1)[C@@H](C)O)C(=O)N1CCC[C@H]1C(=O)N[C@@H](CO)C(=O)N[C@@H](CO)C(=O)N[C@H](C(=O)N[C@@H](CC(N)=O)C(=O)N[C@H](C(=O)NCC(=O)N[C@@H](CO)C(=O)N[C@@H](Cc1c[nH]cn1)C(=O)N[C@H](C(=O)N[C@@H](Cc1ccc(O)cc1)C(N)=O)[C@@H](C)O)C(C)C)[C@@H](C)O [Example 18] ({C20 diacid-γGlu}-KCNTATCATQRLAEFLRHSSPNFGAIPSSTNVGSHTY-NH2; disulfide 2-7)	4.8	4.8	154 pM	4.8	742 pM	5090 pM				4.8
CC[C@H](C)[C@H](NC(=O)[C@H](C)NC(=O)CNC(=O)[C@H](Cc1ccccc1)NC(=O)[C@H](CC(N)=O)NC(=O)[C@@H]1CCCN1C(=O)[C@H](CO)NC(=O)[C@H](CO)NC(=O)[C@H](Cc1c[nH]cn1)NC(=O)[C@H](CCCNC(=N)N)NC(=O)[C@H](CC(C)C)NC(=O)[C@H](Cc1ccccc1)NC(=O)[C@H](Cc1c[nH]cn1)NC(=O)[C@H](C)NC(=O)[C@H](CC(C)C)NC(=O)[C@H](CCCNC(=N)N)NC(=O)[C@H](CCC(N)=O)NC(=O)[C@@H](NC(=O)[C@H](C)NC(=O)[C@@H]1CSSC[C@H](NC(=O)[C@@H](N)CCCCNC(=O)CC[C@H](NC(=O)CCCCCCCCCCCCCCCCCCC(=O)O)C(=O)O)C(=O)N[C@@H](CC(N)=O)C(=O)N[C@@H]([C@@H](C)O)C(=O)N[C@@H](C)C(=O)N[C@@H]([C@@H](C)O)C(=O)N1)[C@@H](C)O)C(=O)N1CCC[C@H]1C(=O)N[C@@H](CO)C(=O)N[C@@H](CO)C(=O)N[C@H](C(=O)N[C@@H](CC(N)=O)C(=O)N[C@H](C(=O)NCC(=O)N1CCC[C@H]1C(=O)N[C@@H](CC(N)=O)C(=O)N[C@H](C(=O)N1CCC[C@H]1C(N)=O)[C@@H](C)O)C(C)C)[C@@H](C)O [Example 115] (H-K([γGlu-C20 diacid])CNTATCATQRLAHFLRHSSPNFGAIPSSTNVGPNTP-NH2; disulfide 2-7 (inferred); N-terminus assumed)	0.8	0.8	52 pM	0.8	40 pM	157 pM				0.8
